{
  "source": "PubChem BioAssay (NCI)",
  "assay_in_all_cases": "NCI anticancer screen, dose series, 48 h",
  "key": {"HT29 colon": {"test_system": "HT29 colon"}, "OVCAR-3 ovarian": {"test_system": "OVCAR-3 ovarian"}, "A549 NSCLC": {"test_system": "A549 NSCLC"}, "SF-295 CNS": {"test_system": "SF-295 CNS"}, "M14 melanoma": {"test_system": "M14 melanoma"}, "NCI-H226 lung": {"test_system": "NCI-H226 lung"}, "A498 renal": {"test_system": "A498 renal"}, "UACC-257 melanoma": {"test_system": "UACC-257 melanoma"}, "SNB-19 CNS": {"test_system": "SNB-19 CNS"}, "SK-MEL-28 melanoma": {"test_system": "SK-MEL-28 melanoma"}, "DU-145 prostate": {"test_system": "DU-145 prostate"}, "OVCAR-5 ovarian": {"test_system": "OVCAR-5 ovarian"}, "COLO 205 colon": {"test_system": "COLO 205 colon"}, "TK-10 renal": {"test_system": "TK-10 renal"}, "SW-620 colon": {"test_system": "SW-620 colon"}, "HOP-62 NSCLC": {"test_system": "HOP-62 NSCLC"}, "ACHN renal": {"test_system": "ACHN renal"}, "EKVX NSCLC": {"test_system": "EKVX NSCLC"}, "RXF 393 renal": {"test_system": "RXF 393 renal"}, "CCRF-CEM leukemia": {"test_system": "CCRF-CEM leukemia"}, "T-47D breast": {"test_system": "T-47D breast"}, "SN12C renal": {"test_system": "SN12C renal"}, "UO-31 renal": {"test_system": "UO-31 renal"}, "SK-OV-3 ovarian": {"test_system": "SK-OV-3 ovarian"}, "HCC-2998 colon": {"test_system": "HCC-2998 colon"}, "HCT-15 colon": {"test_system": "HCT-15 colon"}, "K-562 leukemia": {"test_system": "K-562 leukemia"}, "SK-MEL-2 melanoma": {"test_system": "SK-MEL-2 melanoma"}, "NCI-H460 lung": {"test_system": "NCI-H460 lung"}, "786-0 renal": {"test_system": "786-0 renal"}, "SNB-75 CNS": {"test_system": "SNB-75 CNS"}, "NCI-H522 lung": {"test_system": "NCI-H522 lung"}, "SF-268 CNS": {"test_system": "SF-268 CNS"}, "OVCAR-8 ovarian": {"test_system": "OVCAR-8 ovarian"}, "SF-539 CNS": {"test_system": "SF-539 CNS"}, "U251 CNS": {"test_system": "U251 CNS"}, "MDA-MB-435": {"test_system": "MDA-MB-435"}, "KM12 colon": {"test_system": "KM12 colon"}, "HOP-92 NSCLC": {"test_system": "HOP-92 NSCLC"}, "CAKI-1 renal": {"test_system": "CAKI-1 renal"}, "HCT-116 colon": {"test_system": "HCT-116 colon"}, "SK-MEL-5 melanoma": {"test_system": "SK-MEL-5 melanoma"}, "BT-549 breast": {"test_system": "BT-549 breast"}},
  "note": "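Values below derive from 48-hour exposures of cells grown in 96-well plates, with endpoints linearly interpolated between the two concentrations bracketing the appropriate inhibition level. GI50 marks 50% less growth. Definition used: TGI = concentration required for complete inhibition of growth.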",
  "data": [
    {"molecule": "Nc1nc(N)c2c(n1)NC(c1ccc(C(F)(F)F)cc1)CC(c1ccc(Nc3nc(NCCO)nc(Nc4ccc(Cl)cc4)n3)cc1)=N2", "note": "(stereo unspecified)", "values": [
      {"measurement": "GI50", "setting": "HT29 colon", "result": 1360, "unit": "nM"},
      {"measurement": "TGI", "setting": "HT29 colon", "result": 2990, "unit": "nM"},
      {"measurement": "GI50", "setting": "OVCAR-3 ovarian", "result": 1320, "unit": "nM"},
      {"measurement": "TGI", "setting": "OVCAR-3 ovarian", "result": 2940, "unit": "nM"},
      {"measurement": "GI50", "setting": "A549 NSCLC", "result": 1730, "unit": "nM"},
      {"measurement": "TGI", "setting": "A549 NSCLC", "result": 3500, "unit": "nM"},
      {"measurement": "GI50", "setting": "SF-295 CNS", "result": 1790, "unit": "nM"},
      {"measurement": "TGI", "setting": "SF-295 CNS", "result": 3320, "unit": "nM"},
      {"measurement": "GI50", "setting": "M14 melanoma", "result": 1640, "unit": "nM"},
      {"measurement": "TGI", "setting": "M14 melanoma", "result": 3060, "unit": "nM"},
      {"measurement": "GI50", "setting": "NCI-H226 lung", "result": 1840, "unit": "nM"},
      {"measurement": "TGI", "setting": "NCI-H226 lung", "result": 3910, "unit": "nM"},
      {"measurement": "GI50", "setting": "A498 renal", "result": 1560, "unit": "nM"},
      {"measurement": "TGI", "setting": "A498 renal", "result": 2900, "unit": "nM"},
      {"measurement": "GI50", "setting": "UACC-257 melanoma", "result": 1750, "unit": "nM"},
      {"measurement": "TGI", "setting": "UACC-257 melanoma", "result": 3190, "unit": "nM"},
      {"measurement": "GI50", "setting": "SNB-19 CNS", "result": 1510, "unit": "nM"},
      {"measurement": "TGI", "setting": "SNB-19 CNS", "result": 2950, "unit": "nM"},
      {"measurement": "GI50", "setting": "SK-MEL-28 melanoma", "result": 1530, "unit": "nM"},
      {"measurement": "TGI", "setting": "SK-MEL-28 melanoma", "result": 2860, "unit": "nM"},
      {"measurement": "GI50", "setting": "DU-145 prostate", "result": 1510, "unit": "nM"},
      {"measurement": "TGI", "setting": "DU-145 prostate", "result": 2840, "unit": "nM"},
      {"measurement": "GI50", "setting": "OVCAR-5 ovarian", "result": 1600, "unit": "nM"},
      {"measurement": "TGI", "setting": "OVCAR-5 ovarian", "result": 3000, "unit": "nM"},
      {"measurement": "GI50", "setting": "COLO 205 colon", "result": 1330, "unit": "nM"},
      {"measurement": "TGI", "setting": "COLO 205 colon", "result": 2640, "unit": "nM"},
      {"measurement": "GI50", "setting": "TK-10 renal", "result": 1780, "unit": "nM"},
      {"measurement": "TGI", "setting": "TK-10 renal", "result": 3170, "unit": "nM"},
      {"measurement": "GI50", "setting": "SW-620 colon", "result": 1600, "unit": "nM"},
      {"measurement": "TGI", "setting": "SW-620 colon", "result": 3360, "unit": "nM"},
      {"measurement": "GI50", "setting": "HOP-62 NSCLC", "result": 1630, "unit": "nM"},
      {"measurement": "TGI", "setting": "HOP-62 NSCLC", "result": 3160, "unit": "nM"},
      {"measurement": "GI50", "setting": "ACHN renal", "result": 1500, "unit": "nM"},
      {"measurement": "TGI", "setting": "ACHN renal", "result": 2820, "unit": "nM"},
      {"measurement": "GI50", "setting": "EKVX NSCLC", "result": 1520, "unit": "nM"},
      {"measurement": "TGI", "setting": "EKVX NSCLC", "result": 2960, "unit": "nM"},
      {"measurement": "GI50", "setting": "RXF 393 renal", "result": 1140, "unit": "nM"},
      {"measurement": "TGI", "setting": "RXF 393 renal", "result": 2500, "unit": "nM"},
      {"measurement": "GI50", "setting": "CCRF-CEM leukemia", "result": 1230, "unit": "nM"},
      {"measurement": "TGI", "setting": "CCRF-CEM leukemia", "result": "> 100000", "unit": "nM"},
      {"measurement": "GI50", "setting": "T-47D breast", "result": 1550, "unit": "nM"},
      {"measurement": "TGI", "setting": "T-47D breast", "result": 3690, "unit": "nM"},
      {"measurement": "GI50", "setting": "SN12C renal", "result": 1760, "unit": "nM"},
      {"measurement": "TGI", "setting": "SN12C renal", "result": 3340, "unit": "nM"},
      {"measurement": "GI50", "setting": "UO-31 renal", "result": 1430, "unit": "nM"},
      {"measurement": "TGI", "setting": "UO-31 renal", "result": 2760, "unit": "nM"},
      {"measurement": "GI50", "setting": "SK-OV-3 ovarian", "result": 1830, "unit": "nM"},
      {"measurement": "TGI", "setting": "SK-OV-3 ovarian", "result": 3450, "unit": "nM"},
      {"measurement": "GI50", "setting": "HCC-2998 colon", "result": 1310, "unit": "nM"},
      {"measurement": "TGI", "setting": "HCC-2998 colon", "result": 2620, "unit": "nM"},
      {"measurement": "GI50", "setting": "HCT-15 colon", "result": 1150, "unit": "nM"},
      {"measurement": "TGI", "setting": "HCT-15 colon", "result": 2580, "unit": "nM"},
      {"measurement": "GI50", "setting": "K-562 leukemia", "result": 642, "unit": "nM"},
      {"measurement": "TGI", "setting": "K-562 leukemia", "result": "> 100000", "unit": "nM"},
      {"measurement": "GI50", "setting": "SK-MEL-2 melanoma", "result": 1670, "unit": "nM"},
      {"measurement": "TGI", "setting": "SK-MEL-2 melanoma", "result": 3070, "unit": "nM"},
      {"measurement": "GI50", "setting": "NCI-H460 lung", "result": 1960, "unit": "nM"},
      {"measurement": "TGI", "setting": "NCI-H460 lung", "result": 4010, "unit": "nM"},
      {"measurement": "GI50", "setting": "786-0 renal", "result": 1390, "unit": "nM"},
      {"measurement": "TGI", "setting": "786-0 renal", "result": 2910, "unit": "nM"},
      {"measurement": "GI50", "setting": "SNB-75 CNS", "result": 1700, "unit": "nM"},
      {"measurement": "TGI", "setting": "SNB-75 CNS", "result": 3930, "unit": "nM"},
      {"measurement": "GI50", "setting": "NCI-H522 lung", "result": 1340, "unit": "nM"},
      {"measurement": "TGI", "setting": "NCI-H522 lung", "result": 2720, "unit": "nM"},
      {"measurement": "GI50", "setting": "SF-268 CNS", "result": 1660, "unit": "nM"},
      {"measurement": "TGI", "setting": "SF-268 CNS", "result": 3470, "unit": "nM"},
      {"measurement": "GI50", "setting": "OVCAR-8 ovarian", "result": 1500, "unit": "nM"},
      {"measurement": "TGI", "setting": "OVCAR-8 ovarian", "result": 2940, "unit": "nM"},
      {"measurement": "GI50", "setting": "SF-539 CNS", "result": 1560, "unit": "nM"},
      {"measurement": "TGI", "setting": "SF-539 CNS", "result": 2970, "unit": "nM"},
      {"measurement": "GI50", "setting": "U251 CNS", "result": 1240, "unit": "nM"},
      {"measurement": "TGI", "setting": "U251 CNS", "result": 2530, "unit": "nM"},
      {"measurement": "GI50", "setting": "MDA-MB-435", "result": 1400, "unit": "nM"},
      {"measurement": "TGI", "setting": "MDA-MB-435", "result": 2720, "unit": "nM"},
      {"measurement": "GI50", "setting": "KM12 colon", "result": 1370, "unit": "nM"},
      {"measurement": "TGI", "setting": "KM12 colon", "result": 2880, "unit": "nM"},
      {"measurement": "GI50", "setting": "HOP-92 NSCLC", "result": 1480, "unit": "nM"},
      {"measurement": "TGI", "setting": "HOP-92 NSCLC", "result": 3430, "unit": "nM"},
      {"measurement": "GI50", "setting": "CAKI-1 renal", "result": 1450, "unit": "nM"},
      {"measurement": "TGI", "setting": "CAKI-1 renal", "result": 2850, "unit": "nM"},
      {"measurement": "GI50", "setting": "HCT-116 colon", "result": 1050, "unit": "nM"},
      {"measurement": "TGI", "setting": "HCT-116 colon", "result": 2410, "unit": "nM"},
      {"measurement": "GI50", "setting": "SK-MEL-5 melanoma", "result": 1550, "unit": "nM"},
      {"measurement": "TGI", "setting": "SK-MEL-5 melanoma", "result": 2890, "unit": "nM"},
      {"measurement": "GI50", "setting": "BT-549 breast", "result": 1570, "unit": "nM"},
      {"measurement": "TGI", "setting": "BT-549 breast", "result": 3160, "unit": "nM"}
    ]}
  ]
}
